Reference: patent US10294202B2, “Pyrrolidinones as herbicides” (FMC Corporation, priority 2013, dated 2019)

Key:
Russian thistle = assay: Test C pre-/postemergence herbicide test; type: in vivo, Salsola kali; conditions: Preemergence
From the text: Seeds of plant species selected from blackgrass (Alopecurus myosuroides), ryegrass, Italian (Italian ryegrass, Lolium multiflorum), wheat (winter wheat, Triticum aestivum), galium (catchweed bedstraw, Galium aparine), corn (Zea mays), crabgrass, large (large crabgrass, Digitaria sanguinalis), foxtail, giant (giant foxtail, Setaria faberii), johnsongrass (Sorghum halepense), lambsquarters (Chenopodium album), morningglory (Ipomoea coccinea), nutsedge, yellow (yellow nutsedge, Cyperus esculentus), pigweed (Amaranthus retroflexus), ragweed (common ragweed, Ambrosia elatior), soybean (Glycine max), barnyardgrass (Echinochloa crus-galli), oilseed rape (Brassica napus), waterhemp (common waterhemp, Amaranthus rudis), kochia (Kochia scoparia), oat, wild (wild oat, Avena fatua), surinam grass (Brachiaria decumbens), foxtail, green (green foxtail, Setaria viridis), goosegrass (Eleusine indica), bromegrass, downy (downy bromegrass, Bromus tectorum), nightshade (eastern black nightshade, Solanum ptycanthum), cocklebur (common cocklebur, Xanthium strumarium), cupgrass, woolly (woolly cupgrass, Eriochloa villosa), bermudagrass (Cynodon dactylon), sunflower, (common oilseed sunflower, Helianthus annuus), Russian thistle (Salsola kali) and velvetleaf (Abutilon theophrasti) were planted into a blend of loam soil and sand and treated preemergence with test chemicals formulated in a non-phytotoxic solvent mixture which included a surfactant. At the same time, plants selected from these crop and weed species and also barley (winter barley, Hordeum vulgare), […]), chickweed (common chickweed, Stellaria media), deadnettle (henbit deadnettle, Lamium amplexicaule), and canarygrass (littleseed canarygrass, Phalaris minor) were planted in pots containing Redi-Earth® planting medium (Scotts Company, 14111 Scottslawn Road, Marysville, Ohio 43041) comprising spaghnum peat moss, vermiculite, wetting agent and starter nutrients and treated with postemergence applications of test chemicals formulated in the same manner. Plants ranged in height from 2 to 18 cm (1- to 4-leaf stage) for postemergence treatments. Treated plants and controls were maintained in a greenhouse for 13 to 15 days, after which time all species were compared to controls and visually evaluated. Plant response ratings, summarized in Table C, are based on a scale of 0 to 100 where 0 is no effect and 100 is complete control. A dash (-) response means no test result.

Rice, W.S. Ind = assay: Test F flood (paddy) test; type: in vivo, Oryza sativa Indica; conditions: 21 d, scale 0-100
Outline: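 Pots of sterilized Tama silt loam (35:50:15 sand:silt:clay, 2.6% organic matter) were sown so crop and weeds reached the 2.0–2.5-leaf stage; greenhouse 30/27 °C, 16-h photoperiod. Pots flooded to 3 cm, compound applied into paddy water, depth maintained. Visual rating vs untreated controls after 21 d, 0–100 scale.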

flatsedge, rice = assay: Test F flood (paddy) test; type: in vivo, Cyperus iria; conditions: 21 d, scale 0-100
From the text: (§1) Three plastic pots (ca. 16-cm diameter) per rate were partially filled with sterilized Tama silt loam soil comprising a 35:50:15 ratio of sand, silt and clay and 2.6% organic matter. Separate plantings for each of the three pots were as follows. Seeds from the U.S. of monochoria (Monochoria vaginalis), sedge, umbrella (small-flower umbrella sedge, Cyperus difformis), bulrush, […] bulrush, Scirpus juncoides), and […] (purple […] coccinea), were planted into one 16-cm pot for each rate. Seeds from the U.S. of flatsedge, rice (rice flatsedge, Cyperus iria), sprangletop, Brdd. (bearded sprangletop, Leptochloa fascicularis), one stand of 9 or 10 water seeded rice seedlings (Rice, W.S. Jap, Oryza sativa cv. 'Japonica-[…]' or Rice, W.S. Ind, 'Indica'), and two stands of 3 or 4 seedlings of rice, transplanted (transplanted rice, Oryza sativa cv. 'Japonica-[…]') were planted into one 16-cm pot for each rate. Seeds from the U.S. of barnyardgrass (Echinochloa crus-galli), […] (common […], Alisma plantago-aquatica), and watergrass, late (late watergrass, Echinochloa oryzicola) were planted into one 16-cm pot for each rate. Plantings were sequential so that crop and weed species were at the 2.0 to 2.5-leaf stage at time of treatment. Potted plants were grown in a greenhouse with day/night temperature settings of 30/27° C., and supplemental balanced lighting was provided to maintain a 16-h photoperiod. Test pots were maintained in the greenhouse until test completion. At time of treatment, test pots were flooded to 3 cm above the soil surface, treated by application of test compounds directly to the paddy water, and then maintained at that water depth for the duration of the test. Effects of treatments on rice and weeds were visually evaluated by comparison to untreated controls after 21 d. Plant response ratings, summarized in Table F, are based on a scale of 0 to 100 where 0 is no effect and 100 is complete control. A dash (-) response means no test result.

redstem = assay: Test F flood (paddy) test; type: in vivo, Ammannia coccinea; conditions: 21 d, scale 0-100
From the text: as §1

barley (winter barley) = assay: Test C postemergence herbicide test; type: in vivo, Hordeum vulgare
From the text: (§2) At the same time, plants selected from these crop and weed species and also barley (winter barley, Hordeum vulgare), […]), chickweed (common chickweed, Stellaria media), deadnettle (henbit deadnettle, Lamium amplexicaule), and canarygrass (littleseed canarygrass, Phalaris minor) were planted in pots containing Redi-Earth® planting medium (Scotts Company, 14111 Scottslawn Road, Marysville, Ohio 43041) comprising spaghnum peat moss, vermiculite, wetting agent and starter nutrients and treated with postemergence applications of test chemicals formulated in the same manner. Plants ranged in height from 2 to 18 cm (1- to 4-leaf stage) for postemergence treatments. Treated plants and controls were maintained in a greenhouse for 13 to 15 days, after which time all species were compared to controls and visually evaluated. Plant response ratings, summarized in Table C, are based on a scale of 0 to 100 where 0 is no effect and 100 is complete control. A dash (-) response means no test result.

windgrass = assay: Test C postemergence herbicide test; type: in vivo, Apera spica-venti
From the text: as §2

canarygrass = assay: Test C postemergence herbicide test; type: in vivo, Phalaris minor
From the text: as §2

[1] = 125 g ai/ha, scale 0 to 100 (0 no effect, 100 complete control)
[2] = 31 g ai/ha, scale 0 (no effect) to 100 (complete control)
[3] = 62 g ai/ha, scale 0 to 100 (0 no effect, 100 complete control)
[4] = 250 g ai/ha, scale 0 to 100 (0 no effect, 100 complete control)
[5] = 16 g ai/ha, scale 0 to 100 (0 no effect, 100 complete control)

O=C1NCC(c2ccc(Cl)c(Cl)c2)C1C(=O)Nc1ccccc1F (racemic) [Compound 14]
0: Plant response rating, Russian Thistle (Russian thistle; 62 g ai/ha, scale 0 to 100) | Plant response rating, Russian Thistle (Russian thistle; [1])

O=C1NCC(c2ccc(F)c(F)c2)C1C(=O)Nc1cccc(F)c1F (racemic) [Compound 101]
20: Plant response rating, Rice, W.S. Ind (Rice, W.S. Ind; 125 g ai/ha)
0: Plant response rating, Rice, W.S. Ind (Rice, W.S. Ind; 64 g ai/ha)
60: Plant response rating, Rice, W.S. Ind (Rice, W.S. Ind; 500 g ai/ha)
35: Plant response rating, Rice, W.S. Ind (Rice, W.S. Ind; 250 g ai/ha)

O=C1NCC(c2cccc(C(F)F)c2)C1C(=O)Nc1ccccc1F (racemic) [Compound 210]
0: Plant response rating, Rice, W.S. Ind (Rice, W.S. Ind; 125 g ai/ha) | Plant response rating, Rice, W.S. Ind (Rice, W.S. Ind; 250 g ai/ha) | Plant response rating, Rice, W.S. Ind (Rice, W.S. Ind; 500 g ai/ha)

O=C1NCCC1C(=O)N(c1ccc(F)c(F)c1)c1ccccc1F (centres unmarked) [Compound 5, N-(3,4-difluorophenyl)-N-(2-fluorophenyl)-2-oxo-3-pyrrolidinecarboxamide]
0: Plant response rating, Russian Thistle (Russian thistle; 62 g ai/ha, scale 0 to 100) | Plant response rating, Flatsedge, Rice (flatsedge, rice; 125 g ai/ha) | Plant response rating, Flatsedge, Rice (flatsedge, rice; 250 g ai/ha) | Plant response rating, Flatsedge, Rice (flatsedge, rice; 500 g ai/ha) | Plant response rating, Flatsedge, Rice (flatsedge, rice; 1000 g ai/ha) | Plant response rating, Flatsedge, Rice (flatsedge, rice; 2000 g ai/ha) | Plant response rating, Redstem (redstem; 125 g ai/ha) | Plant response rating, Redstem (redstem; 250 g ai/ha)
40: Plant response rating, Redstem (redstem; 500 g ai/ha)
45: Plant response rating, Redstem (redstem; 1000 g ai/ha) | Plant response rating, Redstem (redstem; 2000 g ai/ha)

O=C1NCC(c2ccc(F)c(F)c2)C1C(=O)Nc1cccc(F)c1F (centres unmarked) [Compound 17, N-(2,3-difluorophenyl)-4-(3,4-difluorophenyl)-2-oxo-3-pyrrolidinecarboxamide]
0: Plant response rating, Barley (barley (winter barley); [2]) | Plant response rating, Barley (barley (winter barley); [3]) | Plant response rating, Barley (barley (winter barley); [1]) | Plant response rating, Barley (barley (winter barley); [4]) | Plant response rating, Windgrass (windgrass; [2]) | Plant response rating, Windgrass (windgrass; [3]) | Plant response rating, Windgrass (windgrass; [1]) | Plant response rating, Windgrass (windgrass; [4]) | Plant response rating, Redstem (redstem; 125 g ai/ha) | Plant response rating, Redstem (redstem; 250 g ai/ha) | Plant response rating, Redstem (redstem; 500 g ai/ha) | Plant response rating, Canarygrass (canarygrass; [2]) | Plant response rating, Canarygrass (canarygrass; [3]) | Plant response rating, Canarygrass (canarygrass; [1]) | Plant response rating, Canarygrass (canarygrass; [4])
40: Plant response rating, Flatsedge, Rice (flatsedge, rice; 2000 g ai/ha) | Plant response rating, Redstem (redstem; 2000 g ai/ha)
35: Plant response rating, Flatsedge, Rice (flatsedge, rice; 1000 g ai/ha) | Plant response rating, Redstem (redstem; 1000 g ai/ha)
20: Plant response rating, Flatsedge, Rice (flatsedge, rice; 125 g ai/ha) | Plant response rating, Flatsedge, Rice (flatsedge, rice; 250 g ai/ha) | Plant response rating, Flatsedge, Rice (flatsedge, rice; 500 g ai/ha)

O=C1NCC(c2cc(F)c(F)c(F)c2)C1C(=O)Nc1cccc(F)c1F (centres unmarked) [Compound 48]
0: Plant response rating, Barley (barley (winter barley); [5]) | Plant response rating, Barley (barley (winter barley); [2]) | Plant response rating, Barley (barley (winter barley); [3]) | Plant response rating, Barley (barley (winter barley); [1]) | Plant response rating, Windgrass (windgrass; [5]) | Plant response rating, Windgrass (windgrass; [2]) | Plant response rating, Windgrass (windgrass; [3]) | Plant response rating, Windgrass (windgrass; [1]) | Plant response rating, Canarygrass (canarygrass; [5]) | Plant response rating, Canarygrass (canarygrass; [2]) | Plant response rating, Canarygrass (canarygrass; [3]) | Plant response rating, Canarygrass (canarygrass; [1])

O=C1NCC(c2cc(F)c(F)cc2F)C1C(=O)Nc1cccc(F)c1F (centres unmarked) [Compound 50]
0: Plant response rating, Barley (barley (winter barley); [2]) | Plant response rating, Barley (barley (winter barley); [3]) | Plant response rating, Barley (barley (winter barley); [1]) | Plant response rating, Barley (barley (winter barley); [4]) | Plant response rating, Windgrass (windgrass; [2]) | Plant response rating, Windgrass (windgrass; [3]) | Plant response rating, Windgrass (windgrass; [1]) | Plant response rating, Windgrass (windgrass; [4]) | Plant response rating, Canarygrass (canarygrass; [2]) | Plant response rating, Canarygrass (canarygrass; [3]) | Plant response rating, Canarygrass (canarygrass; [1]) | Plant response rating, Canarygrass (canarygrass; [4])

O=C1NCC(c2ccc(Cl)c(F)c2)C1C(=O)Nc1cccc(F)c1F (centres unmarked) [Compound 52]
15: Plant response rating, Barley (barley (winter barley); [4])
0: Plant response rating, Barley (barley (winter barley); [2]) | Plant response rating, Barley (barley (winter barley); [3]) | Plant response rating, Barley (barley (winter barley); [1]) | Plant response rating, Windgrass (windgrass; [2]) | Plant response rating, Windgrass (windgrass; [3]) | Plant response rating, Canarygrass (canarygrass; [2]) | Plant response rating, Canarygrass (canarygrass; [3]) | Plant response rating, Canarygrass (canarygrass; [1]) | Plant response rating, Canarygrass (canarygrass; [4])
20: Plant response rating, Windgrass (windgrass; [1]) | Plant response rating, Windgrass (windgrass; [4])

O=C1NCC(c2ccc(F)c(Cl)c2)C1C(=O)Nc1ccccc1F (centres unmarked) [Compound 60]
20: Plant response rating, Barley (barley (winter barley); [1])
50: Plant response rating, Russian Thistle (Russian thistle; 62 g ai/ha, scale 0 to 100)
60: Plant response rating, Russian Thistle (Russian thistle; [1])
0: Plant response rating, Barley (barley (winter barley); [2]) | Plant response rating, Barley (barley (winter barley); [3]) | Plant response rating, Windgrass (windgrass; [2]) | Plant response rating, Windgrass (windgrass; [3]) | Plant response rating, Windgrass (windgrass; [1]) | Plant response rating, Canarygrass (canarygrass; [2]) | Plant response rating, Canarygrass (canarygrass; [3]) | Plant response rating, Canarygrass (canarygrass; [1])

O=C1NC[C@H](c2cccc(C(F)(F)F)c2)[C@H]1C(=O)Nc1ccccc1F [Compound 204, (3R,4S)—N-(2-fluorophenyl)-2-oxo-4-[3-(trifluoromethyl)phenyl]-3-pyrrolidinecarboxamide]
0: Plant response rating, Rice, W.S. Ind (Rice, W.S. Ind; 125 g ai/ha)
10: Plant response rating, Rice, W.S. Ind (Rice, W.S. Ind; 250 g ai/ha)
20: Plant response rating, Rice, W.S. Ind (Rice, W.S. Ind; 500 g ai/ha)

O=C1NC[C@H](c2cccc(C(F)(F)F)c2)[C@H]1C(=O)Nc1cccc(F)c1F [Compound 206]
45: Plant response rating, Rice, W.S. Ind (Rice, W.S. Ind; 250 g ai/ha)
65: Plant response rating, Rice, W.S. Ind (Rice, W.S. Ind; 500 g ai/ha)
15: Plant response rating, Rice, W.S. Ind (Rice, W.S. Ind; 64 g ai/ha)
25: Plant response rating, Rice, W.S. Ind (Rice, W.S. Ind; 125 g ai/ha)

CN1CC(c2ccc(F)c(F)c2)C(C(=O)Nc2cccc(F)c2F)C1=O (centres unmarked) [Compound 303]
40: Plant response rating, Rice, W.S. Ind (Rice, W.S. Ind; 250 g ai/ha)
25: Plant response rating, Rice, W.S. Ind (Rice, W.S. Ind; 125 g ai/ha)
0: Plant response rating, Flatsedge, Rice (flatsedge, rice; 62 g ai/ha) | Plant response rating, Flatsedge, Rice (flatsedge, rice; 125 g ai/ha) | Plant response rating, Flatsedge, Rice (flatsedge, rice; 250 g ai/ha) | Plant response rating, Flatsedge, Rice (flatsedge, rice; 500 g ai/ha) | Plant response rating, Redstem (redstem; 62 g ai/ha) | Plant response rating, Redstem (redstem; 125 g ai/ha) | Plant response rating, Redstem (redstem; 250 g ai/ha)
30: Plant response rating, Redstem (redstem; 500 g ai/ha)
70: Plant response rating, Rice, W.S. Ind (Rice, W.S. Ind; 500 g ai/ha)
